# Laboratory results as given in patent publication US12637498B2, “PDLIM2 as a biomarker for cancer and as an anti-cancer treatment target” (UNIVERSITY OF PITTSBURGH—OF THE COMMONWEALTH SYSTEM OF …, priority 2019, dated 2026).
# Entries after “also recorded” stand apart in the source; their conditions may differ.
# Experiments:
# [1] = tested on: lung cancer induced by urethane; assay: Urethane model of lung cancer, tumor examination; type: in vivo, mouse; details: for tumor number and tumor burden: WT mice, carboplatin and paclitaxel together
# Method: (§1) Urethane model: 6-8-week-old mice under FVB/N background were intraperitoneally (i.p.) injected with urethane (1 g/kg body weight, Sigma-Aldrich, St. Louis, MO, USA) once a week for six weeks. All mice were sacrificed for lung tumor examinations seven (for no drug treatment experiments) or six (for drug treatment experiments) weeks post urethane treatment. For drug treatment experiments, the epigenetic agents 5-aza-dC (1 mg/kg body weight, Sigma-Aldrich, St. Louis, MO, USA) and MS-275 (1 mg/kg body weight, Selleckchem, Houston, TX, USA), chemotherapeutic drugs carboplatin (30 mg/kg body weight, AdipoGen, San Diego, CA, USA) and paclitaxel (15 mg/kg body weight, AdipoGen, San Diego, CA, USA), and/or PD-1 neutralizing antibody (200 μg/mouse, BioXCell, West Lebanon, NH, USA) were i.p injected as indicated in FIG. 4. Surface tumors in mouse lungs were counted by three blinded readers under a dissecting microscope, and tumor diameters were measured by microcalipers. K-Ras^G12D model: 6-8-week-old mice under FVB/N background were intranasally administered 1×10^7 plaque-forming units of Cre-expressing adenovirus (adenocre; Gene Transfer Vector Core, University of Iowa, Iowa City, IA). Three months post AdenoCre treatment, all mice were sacrificed for lung tumor examinations.
# PDLIM2flx/flx/SP-C-rtTAtg/−/(tetO)7CMV-Cretg/tg (ΔSPC) mice under a pure FVB/N background and PDLIM2−/− mice under a pure BABL/C background have been described before (Sun et al., Nat. Commun. 2019. 10, 5324). For lung carcinogenesis, six to eight week old ΔSPC and wild type FVB/N mice were intraperitoneally (i.p.) injected with urethane (1 mg/g body weight, Sigma-Aldrich, St. Louis, MO, USA) once a week for six consecutive weeks, followed by different treatment as shown in FIGS. 45A and 49A. Mice were sacrificed for lung inflammation and tumor examinations at six weeks post urethane treatment. Surface tumors in mouse lungs were counted blinded under a dissecting microscope, and tumor diameters were measured by microcalipers. […]
# [2] = tested on: human lung cancer cells; assay: Cell growth assays; type: cell-based
# Method: Cells were seeded into 12-well plates at a density of 5,000 cells per well, in the presence or absence of the indicated treatment. Cell density was determined by replacing the medium with 2 μmol/L of calcein AM in 1× dissociation solution (Trevigen) at the indicated time points. After 1 h of incubation, diesterase activity (relative fluorescence units) was measured with a Tecan Infinite 200 Microplate Reader, using an excitation wavelength of 485 nm and emission wavelength of 520 nm.
# [3] = tested on: PD-L1; assay: qPCR of PD-L1 in lung cancer cells; type: cell-based, human
# Source text: Mouse lung tissues and BAL cells were subjected to RNA extraction, RNA reverse transcription and real-time PCR as described (Li et al., Oncoimmunology 7, e1435250 (2018); Sun et al., Bio. Protoc. 7, pii: e2287 (2017)).
# [4] = tested on: PD-L1; assay: IHC staining of PD-L1 in lung cancer (urethane model); type: in vivo, mouse; details: carboplatin and paclitaxel (chemotherapy)
# Method: as §1
# Mouse or tissues were excised, fixed in formalin, embedded in paraffin, and cut into […] sections. Sections were stained with H&E, or subjected to sequential incubations with different primary antibodies and peroxidase-conjugated goat anti-rabbit secondary antibodies. The human lung tumor tissue arrays were described previously (Sun et al., Oncogene 35, 2299-2310 (2016)).
# Lung tissues were excised, fixed in formalin, embedded in paraffin, and cut into 4-μm-thick sections. Sections were stained with H&E, or subjected to sequential incubations with the indicated primary antibodies, biotinylated secondary antibodies and streptavidin-HRP.
# [5] = tested on: MDR1; assay: qPCR of MDR1 in A549 lung cancer cells; type: cell-based, human; details: with or without PDLIM2 reconstitution
# [6] = tested on: RelA; assay: Subcellular fraction-IB assay of nuclear RelA in lung cancer cells; type: cell-based, human; details: for RelA activation: lung cancer cells
# [7] = tested on: PDLIM2; assay: qPCR of PDLIM2 in RAW264.7 macrophages; type: cell-based, mouse; details: RAW264.7 macrophages treated with H2O2
# Source text: The indicated tissues or cells were subjected to RNA extraction, RNA reverse transcription and real-time PCR using trizol, reverse transcriptase, and Power SYBR Green PCR Master Mix (Thermo Fisher Scientific, Waltham, MA USA).
# [8] = tested on: BACH1; assay: ChIP and nuclear fraction IB of BACH1 in RAW264.7 macrophages; type: cell-based, mouse
# Method: Cells were collected after formaldehyde treatment. The chromatin DNA was extracted, broken into fragments of 300-1000 bp in length by sonication, and immunoprecipitated with antibodies to the target. IgG was used in immunoprecipitation as a control for nonspecific signal. DNA in the immunoprecipitation product was amplified by PCR.
# Whole-cell extracts were prepared by lysing cells in RIPA buffer. Nuclear extracts were prepared by lysing pellets in insoluble nuclear buffer (20 mM Tris, pH 8.0, 150 mM NaCl, 1% [wt/vol] SDS, 1% [vol/vol] NP-40, and 10 mM iodoacetamide) after the cytoplasm was extracted with the hypotonic buffer (20 mM HEPES, pH 8.0, 10 mM KCl, 1 mM MgCl2, 0.1% [vol/vol] Triton X-100, and 20% [vol/vol] glycerol). The purity of the nuclear fractions was confirmed by checking Hsp90 (cytoplasm) or lamin B/C (nuclear fraction). All the lysis buffers were supplemented with 1 mM PMSF and a protease inhibitor cocktail (Roche Molecular Biochemicals). The cell extracts were used for […]. Briefly, the cell extracts were separated on polyacrylamide gels followed by electrotransfer onto nitrocellulose membranes. […] Specific immune complexes were detected by enhanced chemiluminescence as specified by the manufacturer (Western Lightning ECL Pro; Amersham).
# [9] = tested on: PDLIM2; assay: qPCR analysis of PDLIM2 expression in human lung cancer cell lines; type: cell-based
# [10] = Toxicity: animal body weight and H&E staining of major organs; type: in vivo, mouse; details: mice with lung cancer; 1 mg/kg of 5-aza-dC and MS-275 twice per week for 6 weeks
# [11] = ΔSPC mice vs WT, carboplatin and paclitaxel combination therapy (Chemo)
# [12] = ΔSPC mice, PD-1 blockade combined with carboplatin/paclitaxel chemotherapy
compound,measurement,setting,value
CC(=O)O[C@H]1C(=O)[C@@]2(C)[C@H]([C@H](OC(=O)c3ccccc3)[C@]3(O)C[C@H](OC(=O)[C@H](O)[C@@H](NC(=O)c4ccccc4)c4ccccc4)C(C)=C1C3(C)C)[C@]1(OC(C)=O)CO[C@@H]1C[C@@H]2O [paclitaxel],tumor number and tumor burden,[1],significant decrease in tumor number and tumor burden
same,lung cancer treatment (tumor examination),[1]; [11],more resistant; also recorded: increased resistance
same,lung cancer treatment (tumor examination),[1]; [12],resistant; also recorded: more resistant
same,paclitaxel sensitivity (cell growth assays),"[2]; A549 cells with PDLIM2 reconstitution, consecutive 9-day paclitaxel cycles",increased paclitaxel sensitivity
same,paclitaxel sensitivity (cell growth assays),"[2]; H460 cells with PDLIM2 reconstitution, consecutive 9-day paclitaxel cycles",increased paclitaxel sensitivity
same,paclitaxel sensitivity (cell growth assays),[2]; H460 human lung cancer cells with stable IκBα expression,overcame the paclitaxel resistance; also recorded: increased paclitaxel sensitivity
same,acquired resistance to paclitaxel,[2]; lung cancer cells with ectopic PDLIM2 expression,overcame the acquired resistance; also recorded: block acquired resistance
same,PD-L1 expression (qPCR),[3]; lung cancer cells,PD-L1 induction
same,PD-L1 expression in lung cancer (IHC staining),[4],PD-L1 induction
same,MDR1 expression (qPCR),[5],PDLIM2 suppressed paclitaxel induction of MDR1
same,nuclear RelA (subcellular fraction-IB),[6]; H460 human lung cancer cells reconstituted with PDLIM2,much lower paclitaxel induction of nuclear RelA
same,RelA activation,[6],further induced
same,RelA activation,[6]; listed as Paclitaxel,increased RelA activation
OO [H2O2],PDLIM2 expression (qPCR),[7],PDLIM2 expression decrease; also recorded: decreased PDLIM2
same,nuclear BACH1 (nuclear fraction IB),[8]; RAW264.7 macrophages,induced BACH1 nuclear translocation; also recorded: increased nuclear BACH1
same,BACH1 and Pol II bound to the pdlim2 promoter (ChIP),"[8]; RAW264.7 mouse macrophages, 500 μM, 4 hours",detected BACH1 at the BACH1-binding site; also recorded: more BACH1 but less Pol II bound to the pdlim2 promoter
N.N.O=C([O-])C1(C(=O)[O-])CCC1.[Pt+2] [carboplatin],tumor number and tumor burden,[1],significant decrease in tumor number and tumor burden
same,lung cancer treatment (tumor examination),[1]; [11],more resistant; also recorded: increased resistance
same,lung cancer treatment (tumor examination),[1]; [12],resistant; also recorded: more resistant
same,PD-L1 expression (qPCR),[3]; Calu-6 human lung cancer cells,PD-L1 induction
same,PD-L1 expression (qPCR),[3]; lung cancer cells,PD-L1 induction
same,PD-L1 expression in lung cancer (IHC staining),[4],PD-L1 induction
"CC(/C=C/C(=O)NO)=C\[C@@H](C)C(=O)c1ccc(N(C)C)cc1 [TSA, Trichostatin A]",PDLIM2 expression (qPCR),[9]; H460 human lung cancer cells,PDLIM2 recovery
same,PDLIM2 expression (qPCR),[9]; human lung cancer cell lines,induced PDLIM2 re-expression
"Nc1ncn([C@H]2C[C@H](O)[C@@H](CO)O2)c(=O)n1 [5-aza-dC, 5-azadeoxycitidine]",animal body weight,[10],body weight loss
